Like-named read-outs stand apart in the source and are kept apart here.
Target: T1, IRAK4 (Homo sapiens, UniProt Q9NWZ3)
T1 construct: endogenous in cells; host or cells: Karpas299
T1 sequence (Q9NWZ3 1-460): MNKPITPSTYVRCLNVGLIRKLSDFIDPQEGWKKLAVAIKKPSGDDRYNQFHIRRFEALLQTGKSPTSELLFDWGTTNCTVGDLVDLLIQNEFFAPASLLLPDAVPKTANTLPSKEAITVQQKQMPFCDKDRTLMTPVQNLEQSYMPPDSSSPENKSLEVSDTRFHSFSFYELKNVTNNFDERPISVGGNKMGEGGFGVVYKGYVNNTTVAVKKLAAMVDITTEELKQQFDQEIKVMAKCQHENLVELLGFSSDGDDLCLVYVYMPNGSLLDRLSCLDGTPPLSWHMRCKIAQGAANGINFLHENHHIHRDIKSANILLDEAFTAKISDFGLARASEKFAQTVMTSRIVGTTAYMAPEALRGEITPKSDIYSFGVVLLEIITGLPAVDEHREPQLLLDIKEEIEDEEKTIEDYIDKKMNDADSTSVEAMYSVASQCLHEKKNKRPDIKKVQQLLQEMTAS
Assay: IRAK4 Degradation Assay (Karpas299, HTRF/TR-FRET)
Type: cell-based
Method in brief: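 Karpas299 cells at 0.2 million per well were exposed to serially diluted compounds for 24 h or 5 h, then lysed. IRAK4 remaining in lysates was quantified by HTRF (665/620 nm) after overnight antibody incubation at room temperature. Percent degradation was fitted to a four-parameter curve to give IC50 (DC50).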

[1] = Karpas-299 cells, 24 h treatment, maximum percentage of degradation, read-out: IRAK4 in Karpas-299 (24 h) Dmax (%)
[2] = Karpas-299 cells, 24 h treatment, read-out: IRAK4 in Karpas-299 (24 h) DC50
[3] = Degradation (Karpas-299), comparison table, Linker Type A, read-out: Compound (Linker Type A) DC50
[4] = Degradation (Karpas-299), comparison table, Linker Type A, read-out: Compound (Linker Type A) Dmax (%)
[5] = Karpas-299 cells, 5 h treatment, maximum percentage of degradation, read-out: IRAK4 in Karpas-299 (5 h) Dmax (%)
[6] = Karpas-299 cells, 5 h treatment, read-out: IRAK4 in Karpas-299 (5 h) DC50

| Structure (SMILES) | Dmax [1] | DC50 [2] | DC50 [3] | Dmax [4] | Dmax [5] | DC50 [6] |
| --- | --- | --- | --- | --- | --- | --- |
| O=C1CCN(c2ccc(N3CC[C@@H](C(=O)N4CCN([C@H]5CC[C@H](n6cc(NC(=O)c7coc(-c8ccnc(NCC9CC9)c8)n7)c(C(F)F)n6)CC5)CC4)C3)cc2)C(=O)N1 [Example 23, 2-(2-((cyclopropylmethyl)amino)pyridin-4-yl)-N-(3-(difluoromethyl)-1-((1R,4r)-4-(4-((R)-1-(4-(2,4-dioxotetrahydropyrimidin-1(2H)-yl)phenyl)pyrrolidine-3-carbonyl)piperazin-1-yl)cyclohexyl)-1H-pyrazol-4-yl)oxazole-4-carboxamide] | 95% | 6 nM |  |  |  |  |
| CC(C)(O)c1cc2nn(C3CCN([C@@H]4CCN(C(=O)C5CN(c6cc(F)c([C@H]7CCC(=O)NC7=O)c(F)c6)C5)CC4(F)F)CC3)cc2cc1NC(=O)c1ccc2cc(C#N)cnn12 [Example 288, 3-cyano-N-(2-((R)-1′-(1-(4-((R)-2,6-dioxopiperidin-3-yl)-3,5-difluorophenyl)azetidine-3-carbonyl)-3′,3′-difluoro-[1,4′-bipiperidin]-4-yl)-6-(2-hydroxypropan-2-yl)-2H-indazol-5-yl)pyrrolo[1,2-b]pyridazine-7-carboxamide] | 96% | 2.3 nM |  |  |  |  |
| COc1cc2nn([C@H]3CC[C@H](CN4CCN(C(=O)[C@H]5CC[C@H](Oc6ccc(N7CCC(=O)NC7=O)cc6)CC5)CC4)CC3)cc2cc1NC(=O)c1cccc(C(F)(F)F)n1 [Example 6, N-(2-((1R,4r)-4-((4-((1r,4R)-4-(4-(2,4-dioxotetrahydropyrimidin-1(2H)-yl)phenoxy)cyclohexane-1-carbonyl)piperazin-1-yl)methyl)cyclohexyl)-6-methoxy-2H-indazol-5-yl)-6-(trifluoromethyl)picolinamide] | 11% | > 10000 nM | > 10000 nM | 11% |  |  |
| CC(C)(O)c1cc2nn([C@H]3CC[C@H](N4CCN(C(=O)C5CN(c6cc(F)c([C@H]7CCC(=O)NC7=O)c(F)c6)C5)CC4)CC3)cc2cc1NC(=O)c1cnn2cc(C#N)cnc12 [Example 411, 6-cyano-N-(2-((1r,4r)-4-(4-(1-(4-((R)-2,6-dioxopiperidin-3-yl)-3,5-difluorophenyl)azetidine-3-carbonyl)piperazin-1-yl)cyclohexyl)-6-(2-hydroxypropan-2-yl)-2H-indazol-5-yl)pyrazolo[1,5-a]pyrimidine-3-carboxamide] | 9% | > 10000 nM |  |  |  |  |
| Cc1cc(-c2nc(C(=O)Nc3cn(-c4ccc(N5CCN(C(=O)[C@@H]6CCN(c7cc(F)c([C@H]8CCC(=O)NC8=O)c(F)c7)C6)CC5)nc4)nc3C(N)=O)co2)ccn1 [Example 30, N-(3-carbamoyl-1-(6-(4-((R)-1-(4-((R)-2,6-dioxopiperidin-3-yl)-3,5-difluorophenyl)pyrrolidine-3-carbonyl)piperazin-1-yl)pyridin-3-yl)-1H-pyrazol-4-yl)-2-(2-methylpyridin-4-yl)oxazole-4-carboxamide] | 95% | 3.2 nM |  |  | 76% | 5.3 nM |
| O=C1CC[C@H](c2c(F)cc(N3CC(CN4CCN([C@H]5CC[C@H](n6cc(NC(=O)c7csc(-c8cn[nH]c8)n7)c(C(F)F)n6)CC5)CC4)C3)cc2F)C(=O)N1 [Example 435, N-(3-(difluoromethyl)-1-((1r,4r)-4-(4-((1-(4-((R)-2,6-dioxopiperidin-3-yl)-3,5-difluorophenyl)azetidin-3-yl)methyl)piperazin-1-yl)cyclohexyl)-1H-pyrazol-4-yl)-2-(1H-pyrazol-4-yl)thiazole-4-carboxamide] | 100% | 0.4 nM |  |  |  |  |
| CC(C)(O)c1cc2nn([C@H]3CC[C@H](N4CCN(C(=O)C5CCN(c6cc(F)c([C@H]7CCC(=O)NC7=O)c(F)c6)CC5)CC4)CC3)cc2cc1NC(=O)c1cccc(C(F)(F)F)n1 [Example 47, N-(2-((1r,4r)-4-(4-(1-(4-((R)-2,6-dioxopiperidin-3-yl)-3,5-difluorophenyl)piperidine-4-carbonyl)piperazin-1-yl)cyclohexyl)-6-(2-hydroxypropan-2-yl)-2H-indazol-5-yl)-6-(trifluoromethyl)picolinamide] | 98% | 0.6 nM |  |  |  |  |
| CC(C)(O)c1cc2nn([C@H]3CC[C@H](N4CCN(c5ccc(CCC(=O)NC6CCC(=O)NC6=O)cc5)CC4)CC3)cc2cc1NC(=O)c1ccc2cc(C#N)cnn12 (stereo partly shown) [Example 440, 3-cyano-N-(2-((1r,4r)-4-(4-(4-(3-((2,6-dioxopiperidin-3-yl)amino)-3-oxopropyl)phenyl)piperazin-1-yl)cyclohexyl)-6-(2-hydroxypropan-2-yl)-2H-indazol-5-yl)pyrrolo[1,2-b]pyridazine-7-carboxamide] | 80% | 183 nM |  |  |  |  |
| COc1cc2nn([C@H]3CC[C@H](N4CCN(CCc5cc(F)c([C@H]6CCC(=O)NC6=O)c(F)c5)CC4)CC3)cc2cc1NC(=O)c1cccc(C(F)(F)F)n1 [Example 120, N-(2-((1R,4r)-4-(4-(4-((R)-2,6-dioxopiperidin-3-yl)-3,5-difluorophenethyl)piperazin-1-yl)cyclohexyl)-6-methoxy-2H-indazol-5-yl)-6-(trifluoromethyl)picolinamide] | 99% | 4.2 nM |  |  |  |  |
| O=C1CCN(c2ccc(N3CCC(N4CCN(C[C@H]5CC[C@H](n6cc(NC(=O)c7coc(-c8ccnc(NCC(F)(F)F)c8)n7)c(C(F)F)n6)CC5)CC4)CC3)cc2)C(=O)N1 [Example 2, N-(3-(difluoromethyl)-1-((1r,4r)-4-((4-(1-(4-(2,4-dioxotetrahydropyrimidin-1(2H)-yl)phenyl)piperidin-4-yl)piperazin-1-yl)methyl)cyclohexyl)-1H-pyrazol-4-yl)-2-(2-((2,2,2-trifluoroethyl)amino)pyridin-4-yl)oxazole-4-carboxamide] | 6.5% | > 10000 nM | > 10000 nM | 6.5% |  |  |
| O=C1CC[C@H](c2c(F)cc(N3CC(CN4CCN([C@H]5CC[C@H](n6cc(NC(=O)c7coc(-c8ccnc(NCC9CC9)c8)n7)c(C(F)F)n6)CC5)CC4)C3)cc2F)C(=O)N1 [Example 27, 2-(2-((cyclopropylmethyl)amino)pyridin-4-yl)-N-(3-(difluoromethyl)-1-((1r,4r)-4-(4-((1-(4-((R)-2,6-dioxopiperidin-3-yl)-3,5-difluorophenyl)azetidin-3-yl)methyl)piperazin-1-yl)cyclohexyl)-1H-pyrazol-4-yl)oxazole-4-carboxamide] | 99% | 2.8 nM |  |  |  |  |
| CC(C)(O)c1cc2nn(C3CCN([C@H]4CCN(CC5CN(c6cc(F)c([C@H]7CCC(=O)NC7=O)c(F)c6)C5)CC4(F)F)CC3)cc2cc1NC(=O)c1ccc2cc(C#N)cnn12 [Example 197, 3-cyano-N-(2-((S)-1′-((1-(4-((R)-2,6-dioxopiperidin-3-yl)-3,5-difluorophenyl)azetidin-3-yl)methyl)-3′,3′-difluoro-[1,4′-bipiperidin]-4-yl)-6-(2-hydroxypropan-2-yl)-2H-indazol-5-yl)pyrrolo[1,2-b]pyridazine-7-carboxamide] | 96% | 4.8 nM |  |  |  |  |
| COc1cc2nn([C@H]3CC[C@H](N4CCN(C(=O)[C@@H]5CCN(c6cc(F)c(N7CCC(=O)NC7=O)c(F)c6)C5)CC4)CC3)cc2cc1NC(=O)c1cccc(C(F)(F)F)n1 [Example 177, N-(2-((1R,4r)-4-(4-((R)-1-(4-(2,4-dioxotetrahydropyrimidin-1(2H)-yl)-3,5-difluorophenyl)pyrrolidine-3-carbonyl)piperazin-1-yl)cyclohexyl)-6-methoxy-2H-indazol-5-yl)-6-(trifluoromethyl)picolinamide] | 97% | 7.8 nM |  |  | 94% | 44 nM |

— patent US20250195513A1, “DEGRADATION OF IRAK4 BY CONJUGATION OF IRAK4 INHIBITORS WITH E3 LIGASE LIGAND AND METHODS OF USE” (BeiGene, Ltd., priority 2022, published 2025)
